Reference: PubChem BioAssay AID1259407 (Chemical Carcinogenesis Research Information System (CCRIS), 2018)
The source made the active and inactive calls. The rule behind the calls is not given here.

System: CCRIS mutagenicity, Ames/micronucleus/aberration tests
Assay: CCRIS mutagenicity studies
[1] = Test System: AMES SALMONELLA TYPHIMURIUM, Strain/Indicator: TA98, Metabolic Activation: NONE, Method: PREINCUBATION
[2] = Test System: AMES SALMONELLA TYPHIMURIUM, Strain/Indicator: TA100, Metabolic Activation: NONE, Method: PREINCUBATION

## Cc1ccc2ncccc2c1
Test System: AMES SALMONELLA TYPHIMURIUM, Strain/Indicator: TA98, Metabolic Activation: HAMSTER, LIVER, S-9, AROCLOR 1254 (30%), Method: PREINCUBATION
  mutagenic call: active; positive
[1]
  mutagenic call: inactive; negative
Test System: AMES SALMONELLA TYPHIMURIUM, Strain/Indicator: TA98, Metabolic Activation: RAT, LIVER, S-9, AROCLOR 1254 (5 OR 10%), Method: PREINCUBATION
  mutagenic call: inactive; negative
Test System: AMES SALMONELLA TYPHIMURIUM, Strain/Indicator: TA100, Metabolic Activation: HAMSTER, LIVER, S-9, AROCLOR 1254 (30%), Method: PREINCUBATION
  mutagenic call: active; positive
[2]
  mutagenic call: inactive; negative
Test System: AMES SALMONELLA TYPHIMURIUM, Strain/Indicator: TA100, Metabolic Activation: RAT, LIVER, S-9, AROCLOR 1254 (30%), Method: PREINCUBATION
  mutagenic call: active; positive
Test System: AMES SALMONELLA TYPHIMURIUM, Strain/Indicator: TA100, Metabolic Activation: RAT, LIVER, S-9, PHENOBARBITAL AND 5,6-BENZOFLAVONE, Method: PREINCUBATION
  mutagenic call: active; positive
Test System: AMES SALMONELLA TYPHIMURIUM, Strain/Indicator: TA100, Metabolic Activation: RAT, LIVER, S-9, PHENOBARBITAL AND 5,6-NAPHTHOFLAVONE, Method: PREINCUBATION
  mutagenic call: active; positive
Test System: AMES SALMONELLA TYPHIMURIUM, Strain/Indicator: TA100, Metabolic Activation: RAT, LIVER, S-9, Method: PREINCUBATION
  mutagenic call: active; positive
Test System: UDS RODENT HEPATOCYTES, Strain/Indicator: THY INCORP (NON-S-PHASE), Metabolic Activation: NONE, Method: AUTORADIOGRAPHY
  mutagenic call: inactive; negative

## COc1ccc2cc3c4c(cc(OC)c(OC)c4c2c1)CCN3C
Test System: AMES SALMONELLA TYPHIMURIUM, Strain/Indicator: TA100, Metabolic Activation: RAT, LIVER, S-9, PHENOBARBITAL AND BETA-NAPHTHOFLAVONE, Method: PREINCUBATION
  mutagenic call: inactive; negative

## OC/C=C/c1ccccc1
Test System: AMES SALMONELLA TYPHIMURIUM, Strain/Indicator: TA98, Metabolic Activation: HAMSTER, LIVER, S-9, AROCLOR 1254 (2.5-20%), Method: PREINCUBATION
  mutagenic call: inactive; negative
Test System: AMES SALMONELLA TYPHIMURIUM, Strain/Indicator: TA98, Metabolic Activation: HAMSTER, LIVER, S-9, AROCLOR 1254, Method: STANDARD PLATE
  mutagenic call: inactive; negative
Test System: AMES SALMONELLA TYPHIMURIUM, Strain/Indicator: TA98, Metabolic Activation: NONE, Method: STANDARD PLATE
  mutagenic call: inactive; negative
Test System: AMES SALMONELLA TYPHIMURIUM, Strain/Indicator: TA98, Metabolic Activation: RAT, LIVER, S-9, AROCLOR 1254, Method: STANDARD PLATE
  mutagenic call: inactive; negative
Test System: AMES SALMONELLA TYPHIMURIUM, Strain/Indicator: TA100, Metabolic Activation: HAMSTER, LIVER, S-9, AROCLOR 1254 (2.5-20%), Method: PREINCUBATION
  mutagenic call: inactive; negative
Test System: AMES SALMONELLA TYPHIMURIUM, Strain/Indicator: TA100, Metabolic Activation: HAMSTER, LIVER, S-9, AROCLOR 1254, Method: STANDARD PLATE
  mutagenic call: inactive; negative
Test System: AMES SALMONELLA TYPHIMURIUM, Strain/Indicator: TA100, Metabolic Activation: NONE, Method: STANDARD PLATE
  mutagenic call: inactive; negative
Test System: AMES SALMONELLA TYPHIMURIUM, Strain/Indicator: TA100, Metabolic Activation: RAT, LIVER, S-9, AROCLOR 1254, Method: STANDARD PLATE
  mutagenic call: inactive; negative
Test System: AMES SALMONELLA TYPHIMURIUM, Strain/Indicator: TA102, Metabolic Activation: HAMSTER, LIVER, S-9, AROCLOR 1254, Method: PREINCUBATION
  mutagenic call: inactive; negative
Test System: AMES SALMONELLA TYPHIMURIUM, Strain/Indicator: TA102, Metabolic Activation: NONE, Method: PREINCUBATION
  mutagenic call: inactive; negative
Test System: AMES SALMONELLA TYPHIMURIUM, Strain/Indicator: TA102, Metabolic Activation: RAT, LIVER, S-9, AROCLOR 1254, Method: PREINCUBATION
  mutagenic call: inactive; negative
Test System: AMES SALMONELLA TYPHIMURIUM, Strain/Indicator: TA1535, Metabolic Activation: HAMSTER, LIVER, S-9, AROCLOR 1254, Method: STANDARD PLATE
  mutagenic call: inactive; negative
Test System: AMES SALMONELLA TYPHIMURIUM, Strain/Indicator: TA1535, Metabolic Activation: NONE, Method: STANDARD PLATE
  mutagenic call: inactive; negative
Test System: AMES SALMONELLA TYPHIMURIUM, Strain/Indicator: TA1535, Metabolic Activation: RAT, LIVER, S-9, AROCLOR 1254, Method: STANDARD PLATE
  mutagenic call: inactive; negative
Test System: AMES SALMONELLA TYPHIMURIUM, Strain/Indicator: TA1537, Metabolic Activation: HAMSTER, LIVER, S-9, AROCLOR 1254, Method: STANDARD PLATE
  mutagenic call: inactive; negative
Test System: AMES SALMONELLA TYPHIMURIUM, Strain/Indicator: TA1537, Metabolic Activation: NONE, Method: PREINCUBATION
  mutagenic call: inactive; negative
Test System: AMES SALMONELLA TYPHIMURIUM, Strain/Indicator: TA1537, Metabolic Activation: NONE, Method: STANDARD PLATE
  mutagenic call: inactive; negative
Test System: AMES SALMONELLA TYPHIMURIUM, Strain/Indicator: TA1537, Metabolic Activation: RAT, LIVER, S-9, AROCLOR 1254, Method: STANDARD PLATE
  mutagenic call: inactive; negative
Test System: AMES SALMONELLA TYPHIMURIUM, Strain/Indicator: TA1538, Metabolic Activation: HAMSTER, LIVER, S-9, AROCLOR 1254, Method: STANDARD PLATE
  mutagenic call: inactive; negative
Test System: AMES SALMONELLA TYPHIMURIUM, Strain/Indicator: TA1538, Metabolic Activation: NONE, Method: STANDARD PLATE
  mutagenic call: inactive; negative
Test System: AMES SALMONELLA TYPHIMURIUM, Strain/Indicator: TA1538, Metabolic Activation: RAT, LIVER, S-9, AROCLOR 1254, Method: STANDARD PLATE
  mutagenic call: inactive; negative
Test System: MOUSE LYMPHOMA, Strain/Indicator: L5178Y (TK+/TK-), Metabolic Activation: NONE, Method: SUSPENSION/PLATE
  mutagenic call: active; positive. reevaluation of results: inconclusive
Test System: MOUSE LYMPHOMA, Strain/Indicator: L5178Y (TK+/TK-), Metabolic Activation: RAT, LIVER, S-9, AROCLOR 1254, Method: SUSPENSION/PLATE
  mutagenic call: active; positive. reevaluation of results: positive
Test System: Mouse lymphoma, Strain/Indicator: L5178Y (tk+/tk-), Metabolic Activation: None, Method: Suspension/plate
  mutagenic call: inactive; negative
Test System: Mouse lymphoma, Strain/Indicator: L5178Y (tk+/tk-), Metabolic Activation: Rat, Liver, S-9, Aroclor 1254, Method: Suspension/plate
  mutagenic call: inactive; negative

## CCC#N
End Point: IN VITRO CHROMOSOMAL ABERRATIONS, Test System: CHO-LB CELLS, Metabolic Activation: NONE
  mutagenic call: inactive; negative
End Point: IN VITRO CHROMOSOMAL ABERRATIONS, Test System: CHO-LB CELLS, Metabolic Activation: RAT, LIVER, S-9, AROCLOR 1254
  mutagenic call: inactive; negative
Test System: AMES SALMONELLA TYPHIMURIUM, Strain/Indicator: TA97, Metabolic Activation: HAMSTER, LIVER, S-9, AROCLOR 1254 (10 OR 30%), Method: PREINCUBATION
  mutagenic call: inactive; negative
Test System: AMES SALMONELLA TYPHIMURIUM, Strain/Indicator: TA97, Metabolic Activation: NONE, Method: PREINCUBATION
  mutagenic call: inactive; negative
Test System: AMES SALMONELLA TYPHIMURIUM, Strain/Indicator: TA97, Metabolic Activation: RAT, LIVER, S-9, AROCLOR 1254 (10 OR 30%), Method: PREINCUBATION
  mutagenic call: inactive; negative
Test System: AMES SALMONELLA TYPHIMURIUM, Strain/Indicator: TA98, Metabolic Activation: HAMSTER, LIVER, S-9, AROCLOR 1254 (10 OR 30%), Method: PREINCUBATION
  mutagenic call: inactive; negative
[1]
  mutagenic call: inactive; negative
Test System: AMES SALMONELLA TYPHIMURIUM, Strain/Indicator: TA98, Metabolic Activation: RAT, LIVER, S-9, AROCLOR 1254 (10 OR 30%), Method: PREINCUBATION
  mutagenic call: inactive; negative
Test System: AMES SALMONELLA TYPHIMURIUM, Strain/Indicator: TA100, Metabolic Activation: HAMSTER, LIVER, S-9, AROCLOR 1254 (10 OR 30%), Method: PREINCUBATION
  mutagenic call: inactive; negative
[2]
  mutagenic call: inactive; negative
Test System: AMES SALMONELLA TYPHIMURIUM, Strain/Indicator: TA100, Metabolic Activation: RAT, LIVER, S-9, AROCLOR 1254 (10 OR 30%), Method: PREINCUBATION
  mutagenic call: inactive; negative
Test System: AMES SALMONELLA TYPHIMURIUM, Strain/Indicator: TA1535, Metabolic Activation: HAMSTER, LIVER, S-9, AROCLOR 1254 (10 OR 30%), Method: PREINCUBATION
  mutagenic call: inactive; negative
Test System: AMES SALMONELLA TYPHIMURIUM, Strain/Indicator: TA1535, Metabolic Activation: NONE, Method: PREINCUBATION
  mutagenic call: inactive; negative
Test System: AMES SALMONELLA TYPHIMURIUM, Strain/Indicator: TA1535, Metabolic Activation: RAT, LIVER, S-9, AROCLOR 1254 (10 OR 30%), Method: PREINCUBATION
  mutagenic call: inactive; negative

## C[C@H](CCC(=O)O)[C@H]1CC[C@H]2[C@@H]3CCc4cc(O)ccc4[C@H]3CC[C@]12C
[1]
  mutagenic call: inactive; negative
Test System: AMES SALMONELLA TYPHIMURIUM, Strain/Indicator: TA98, Method: PREINCUBATION
  mutagenic call: inactive; negative
Test System: AMES SALMONELLA TYPHIMURIUM, Strain/Indicator: TA100, Method: PREINCUBATION
  mutagenic call: inactive; negative
